Patent US4104285A, “Taurine and glycine derivatives” (Hoffmann-La Roche Inc., priority 1977, dated 1978)
pKi: −log10 of the molar value.

Columns and labels:
bile flow = assay: stimulation of bile flow in rats, duodenal infusion; format: in vivo, female albino rats; conditions: 100 mg by duodenal infusion in 4ml emulsion, compared to rats which received only the emulsion
Description: The compounds of formula I-A are active in stimulation of bile flow which results in the dissolution of gall stones. This can be seen from the fact that when 100 mg of N-(3α,12α-dihydroxy-5β-24-norcholanoyl)-taurine was administered by duodenal infusion to female albino rats in a 4ml emulsion of sodium taurocholate in […], the flow of bile was increased 15% during the first 8 hours and 30% during the period of 9 to 15 hours after administration compared to the flow in rats which received only the emulsion without the taurine compound. […] This enabled the production of lymph at a constant rate, the infusion of a bile salt and the simultaneous collection of bile.

rat pancreatic lipase = target: T1, rat pancreatic lipase (Rattus norvegicus, UniProt P27657); assay: inhibition of rat pancreatic lipase activity in vitro; format: biochemical; conditions: [14C]-triolein emulsion, pH 8.6, 20 min. at 37° C
T1 sequence (P27657 17-465): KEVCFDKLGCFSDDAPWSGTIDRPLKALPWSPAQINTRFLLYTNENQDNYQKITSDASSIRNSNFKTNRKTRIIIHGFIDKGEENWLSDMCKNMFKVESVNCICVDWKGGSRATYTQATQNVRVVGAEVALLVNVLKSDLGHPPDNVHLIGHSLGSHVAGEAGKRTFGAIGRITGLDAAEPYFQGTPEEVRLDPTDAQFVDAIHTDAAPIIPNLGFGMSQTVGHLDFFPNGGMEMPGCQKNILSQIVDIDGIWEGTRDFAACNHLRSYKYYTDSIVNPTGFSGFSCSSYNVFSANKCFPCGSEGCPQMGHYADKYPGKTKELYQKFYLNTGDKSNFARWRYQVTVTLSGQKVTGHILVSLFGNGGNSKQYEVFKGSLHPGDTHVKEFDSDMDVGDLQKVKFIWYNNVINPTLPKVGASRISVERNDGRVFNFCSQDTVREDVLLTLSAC
Description: Dietary long-chain triglycerides must be hydrolyzed by pancreatic lipase in the duodenum before absorption can occur. […] The capacity of compounds of formula I-C to inhibit rat pancreatic lipase in vitro was investigated by testing the following compounds: The ability of compounds to inhibit rat pancreatic lipase is determined by analyzing the nmoles of free fatty acid [oleic acid] released from [^14 C]-triolein. Compounds of A and B are added to an emulsion consisting of: 200,000 dmp ^14 C-triolein, 7.5 mg triolein, 0.75 mg sodium taurocholate, 15 mg bovine serum albumin and 0.9 ml 0.2 M tris-HCl - 0.15 M NaCl, pH 8.6, per assay. Water and/or pancreatic lipase is added to make an assay volume of 1.0 ml. The emulsion is incubated for 20 min. at 37° C in a shaking water bath. The reaction is stopped by the addition of isopropanol; H2 SO4 (40:1). The lipids are extracted twice with 3 ml volumes of hexane. The liberated fatty acids are extracted with 2 ml of 0.1 N aqueous KOH in 50% methanol. A 1 ml aliquot of the KOH layer is placed in a scintillation vial with 10 ml of 2,5-bis-2-(5-tertiary butyl benzoxazolyl)thiophene. The radioactivity is determined in a scintillation counter. Data are expressed a nmoles free fatty acid [oleic acid] related.

[1] = test system: cholesterol level in the lymph; assay: cholesterol level in thoracic duct lymph of rats after oral administration with 4-14C-cholesterol emulsion; format: in vivo, female albino rats (Charles River); conditions: 100mg orally, compared to control (Na-TC)
Description: The lowering of the cholesterol levels in mammals by the administration of the compound of formula I-B can be seen from the fact that when 100mg of N-(3α,12α-dihydroxyetiocholanoyl)glycine was administered orally to female albino rats, the cholesterol level in the lymph was decreased after administration by 86% over the first 8 hours and 94% over the next 9 to 24 hr. period after administration as compared to the control. In this procedure, female albino rats (Charles River), weighing 300 ± 10 g were kept on a Purina chow diet ad libitum until the time of operation. […] This preparation enabled the production of lymph at a constant rate, the infusion of a bile salt, and the simultaneous collection of bile. All animals received, after operation, a continuous duodenal infusion of sodium taurocholate (Na-TC) in 0.85% NaCl. One day after operation, the rats were given, by stomach intubation, an emulsion containing about 4% triolein, 20 μ C of 4-^14 C-cholesterol (Specific Activity 61.7 mC/mM, 159 μ C/mg), 2 mg of cholesterol, in addition to protein, carbohydrate, and saline. Both the Na-TC and the cholesterol carrier employed gave a single spot on either thin layer or glass fiber paper chromatograph so no further purification was attempted. […] An aliquot of the lipid extract was placed on a small piece of glass fiber paper and counted. […]

triglyceride absorption = assay: effect on triglyceride absorption in vivo, rise in plasma triglycerides after oral load of corn oil; set-up: species or system rats
Description: The ability of compound I to inhibit the absorption of dietary triglyceride in rats is determined by analyzing the rise in serum triglycerides after an oral load of corn oil. […] In this procedure blood samples (0.4 ml) were collected from the rat tail 0, 2, 4, 6, 8 and 24 hours after compound administration. Each rat is its own control. Plasma samples were analyzed for triglyceride content by the procedure set forth in Kessler and Lederer, Tehnicon Symposium 1965 Automation in Analytical Chemistry Ed L. Skeggs, published Mediad Inc. New York (1966) pp 341. The data in Table I is expressed as mg% change in plasma triglyceride levels compared to zero time control values at each time interval. This change in plasma triglycerides was determined by calculating the difference between the triglyceride level at each time point compared to zero time contol level.

Row | SMILES | increase in flow of bile (bile flow; during the first 8 hours after administration) [%] | increase in flow of bile (bile flow; period of 9 to 15 hours after administration) [%] | pKi (rat pancreatic lipase) | decrease of cholesterol level in the lymph (4-14C-cholesterol, % decrease over the control) ([1]; first 8 hours after administration) [%] | decrease of cholesterol level in the lymph (4-14C-cholesterol, % decrease over the control) ([1]; next 9 to 24 hr. period after administration) [%] | ability to inhibit absorption of triglyceride (triglyceride absorption; 1.1 m moles/kg orally 15 minutes before oral corn oil, 24 hour fasted rats) | Change in Plasma Triglyceride Levels, 4 hr (triglyceride absorption; 1.1 m moles/kg orally 15 minutes before oral corn oil, 24 hour fasted rats, 4 hr vs zero time, Control 98 ± 31) [mg %] | Change in Plasma Triglyceride Levels, 6 hr (triglyceride absorption; 1.1 m moles/kg orally 15 minutes before oral corn oil, 24 hour fasted rats, 6 hr vs zero time, Control 161 ± 28) [mg %] | Change in Plasma Triglyceride Levels, 8 hr (triglyceride absorption; 1.1 m moles/kg orally 15 minutes before oral corn oil, 24 hour fasted rats, 8 hr vs zero time, Control 391 ± 58) [mg %] | Change in Plasma Triglyceride Levels, 24 hr (triglyceride absorption; 1.1 m moles/kg orally 15 minutes before oral corn oil, 24 hour fasted rats, 24 hr vs zero time, Control 130 ± 36) [mg %] | Change in Plasma Triglyceride Levels, 2 hr (triglyceride absorption; po) [mg %]
1 | C[C@H](CC(=O)NCCS(=O)(=O)O)[C@H]1CC[C@H]2[C@@H]3CC[C@@H]4C[C@H](O)CC[C@]4(C)[C@H]3C[C@H](O)[C@]12C [Compound A, N-(3α,12α-dihydroxy-5β-24-norcholanoyl)-taurine] | 15 | 30 | 2.15 | – | – | – | – | – | – | – | –
2 | C[C@H](CC(=O)NCC(=O)O)[C@H]1CC[C@H]2[C@@H]3CC[C@@H]4C[C@H](O)CC[C@]4(C)[C@H]3C[C@H](O)[C@]12C [Compound B, N-(3α,12α-dihydroxy-5β-24-norcholanoyl)glycine] | – | – | 2.10 | – | – | – | – | – | – | – | –
3 | C[C@]12CC[C@@H](O)C[C@H]1CC[C@@H]1[C@@H]2C[C@H](O)[C@]2(C)[C@@H](C(=O)NCC(=O)O)CC[C@@H]12 [N-(3α,12α-dihydroxyetiocholanoyl)glycine] | – | – | – | 86 | 94 | inhibit absorption of triglyceride | 107 ± 17 | 130 ± 17 | 167 ± 22 | 46 ± 5 | 29 ± 3
